Measurements taken from patent US6716851B2, “Substituted 2-aryl-4-arylaminopyrimidines and analogs as activators or caspases and inducers of apoptosis and the use thereof” (Cytovia, Inc., priority 2000, dated 2004).
Counter-ions that a name gives are not always drawn.

How the values were obtained:
[1] = test system: T-47D cells; experiment: Caspase cascade activation (N-(Ac-DEVD)-N'-ethoxycarbonyl-R110 fluorogenic substrate) in T-47D cells; type: cell-based, Human; details: 48 h incubation; for EC50: Homo sapiens, T47D, caspase activation potency, read-out: T47 EC50; for T47 Ratio 48 hr: caspase activity: ratio of net RFU of test compound to control
Outline: (§1)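 EC50 comes from sigmoidal fitting of the net RFU ratio over DMSO control, read at ex 485/em 530 nm 3 h after adding 14 μM Ac-DEVD-R110 in lysolecithin/DTT/PIPES pH 7.2 buffer. Compound (0.016-10 μM final) was applied to cells for 48 h at 37 °C beforehand.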

[2] = test system: ZR-75-1 cells; experiment: Caspase cascade activation (N-(Ac-DEVD)-N'-ethoxycarbonyl-R110 fluorogenic substrate) in ZR-75-1 cells; type: cell-based, Human; details: ZR-75-1, 48 h incubation; for EC50: Homo sapiens, caspase activation potency; for ZR Ratio 48 hr: caspase activity: ratio of net RFU of test compound to control
Outline: as §1

SMILES	EC50 [1] [nM]	EC50 [2] [nM]	T47 Ratio 48 hr [1]	ZR Ratio 48 hr [2]
COc1cc(Nc2cc(C(F)(F)F)nc(-c3cccnc3)n2)c(OC)cc1Cl [Example 130, 4-(4-Chloro-2,5-dimethoxyanilino)-2-(3-pyridinyl)-6-(trifluoromethyl)pyrimidine hydrochloride]	295	167	11.3	9.7
COc1ccc(Cl)c(Nc2cc(C)nc(N3CCOCC3)n2)c1 [Example 131, 4-(6-Chloro-3-methoxyanilino)-2-morpholino-6-(methyl)pyrimidine]	> 5000	> 5000	1.2	1.2
COc1cc(Nc2cc(C(F)(F)F)nc(-c3cccnc3)n2)c(C(C)=O)cc1OC [Example 134, 4-(2-Acetyl-4,5-dimethoxyanilino)-2-(3-pyridinyl)-6-(trifluoromethyl)pyrimidine]	807	> 5000	16.5	1.5
COc1cc(Nc2cc(C(F)(F)F)nc(-c3cnccn3)n2)c(OC)cc1Cl.Cl [Example 151, 4-(4-Chloro-2,5-dimethoxyanilino)-(2-pyrazinyl)-6-(trifluoromethyl)pyrimidine hydrochloride]	388	276	12.0	8.6
COc1cc(C)c(Nc2cc(C(F)(F)F)nc(-c3ccncc3)n2)cc1OC.Cl [Example 154, 4-(4,5-Dimethoxy-2-methylanilino)-2-(4-pyridinyl)-6-(trifluoromethyl)pyrimidine hydrochloride]	22	14	6.1	7.9
COc1cc(Nc2cc(C(F)(F)F)nc(-c3ccncc3)n2)c(OC)cc1Cl.Cl [Example 158, 4-(4-Chloro-2,5-dimethoxyanilino)-2-(4-pyridinyl)-6-(trifluoromethyl)pyrimidine hydrochloride]	509	133	9.5	6.0
COc1cc(Nc2cc(C(F)(F)F)nc(-c3ccncc3)n2)cc(OC)c1 [Example 161, 4-(3,5-Dimethoxyanilino)-2-(4-pyridinyl)-6-trifluoromethyl-pyrimidine]	79	86	10.7	5.1
COc1cc(Nc2cc(C(F)(F)F)nc(-c3cc(Cl)nc(Cl)c3)n2)cc(OC)c1 [Example 163, 4-(3,5-Dimethoxyanilino)-2-(2,6-dichloro-4-pyridinyl)-6-trifluoromethylpyrimidine]	> 5000	> 5000	1.1	1.6
COc1ccc(Cl)c(Nc2cc(C(F)(F)F)nc(-c3cc(Cl)nc(Cl)c3)n2)c1 [Example 164, 4-(2-Chloro-5-methoxyanilino)-2-(2,6-dichloro-4-pyridinyl)-6-trifluoromethyl-pyrimidine]	> 5000	> 5000	1.3	1.3
FC(F)(F)c1cc(Nc2ccc3[nH]ccc3c2)nc(-c2cccnc2)n1 [Example 166, 4-(1 H-5-Indolyl-amino)-2-(3-pyridinyl)-6-trifluoromethyl-pyrimidine]	870	532	8.0	3.3
COc1ccc(Nc2cc(C)nc(-c3ccccn3)n2)cc1OC [Example 176, 4-(3,4-Dimethoxyanilino)-6-methyl-2-(2-pyridinyl)pyrimidine]	149	> 5000	4.5	1.9
COc1cc(Nc2cc(C(F)(F)F)nc(-c3cnccn3)n2)cc(OC)c1 [Example 183, 4-(3,5-Dimethoxyanilino)-2-(2-pyrazinyl)-6-trifluoromethylpyrimidine]	82	75	17.3	11.5
COc1ccc(OC)c(CCNc2cc(C(F)(F)F)nc(-c3cccnc3)n2)c1 [Example 200, 4-(2,5-Dimethoxyphenylethylamino)-2-(3-pyridinyl)-6-trifluoromethylpyrimidine]	> 5000	> 5000	1.2	1.4
COc1cc(C#N)c(Nc2cc(C(F)(F)F)nc(-c3cccnc3)n2)cc1OC [Example 203, 4-(2-Cyano-4,5-dimethoxyanilino)-2-(3-pyridinyl)-6-trifluoromethylpyrimidine]	843	2630	10.7	3.4

The next lines start with results.

EC50 [1] [nM]	EC50 [2] [nM]	SMILES	T47 Ratio 48 hr [1]	ZR Ratio 48 hr [2]
335	204	Cc1cc(Nc2cc(C(F)(F)F)nc(-c3ccccn3)n2)c(C)cc1O.Cl [Example 147, 4-(2,5-Dimethyl-4-hydroxyanilino)-2-(2-pyridinyl)-6-(trifluoromethyl)pyrimidine hydrochloride]	13.3	8.4
412	243	Cc1cc(Nc2cc(C(F)(F)F)nc(-c3cnccn3)n2)c(C)cc1O.Cl [Example 148, 4-(2,5-Dimethyl-4-hydroxyanilino)-(2-pyrazinyl)-6-(trifluoromethyl)pyrimidine hydrochloride]	13.8	8.4
75	46	Cc1cc(Nc2cc(C(F)(F)F)nc(-c3ccncc3)n2)c(C)cc1O [Example 149, 4-(2,5-Dimethyl-4-hydroxyanilino)-2-(4-pyridinyl)-6-(trifluoromethyl)pyrimidine]	16.0	10.0
135	133	COc1cc(Nc2cc(C(F)(F)F)nc(-c3ccccn3)n2)c(OC)cc1Cl.Cl [Example 150, 4-(4-Chloro-2,5-dimethoxyanilino)-2-(2-pyridinyl)-6-(trifluoromethyl)pyrimidine hydrochloride]	11.0	9.7
35	212	COc1cc(C)c(Nc2cc(C(F)(F)F)nc(-c3ccccn3)n2)cc1OC.Cl [Example 152, 4-(4,5-Dimethoxy-2-methylanilino)-2-(2-pyridinyl)-6-(trifluoromethyl)pyrimidine hydrochloride]	14.6	8.6
43	146	COc1cc(C)c(Nc2cc(C(F)(F)F)nc(-c3cnccn3)n2)cc1OC.Cl [Example 153, 4-(4,5-Dimethoxy-2-methylanilino)-2-(2-pyrazinyl)-6-(trifluoromethyl)pyrimidine hydrochloride]	15.7	9.3
> 5000	2260	Cl.FC(F)(F)Oc1cccc(Nc2cc(C(F)(F)F)nc(-c3ccccn3)n2)c1 [Example 156, 4-(3-Trifluoromethoxyanilino)-2-(2-pyridinyl)-6-(trifluoromethyl)pyrimidine hydrochloride]	1.7	4.1
43	197	COc1cc(C)c(Nc2cc(C(F)(F)F)nc(-c3cccnc3)n2)cc1OC [Example 157, 4-(4,5-Dimethoxy-2-methylanilino)-2-(3-pyridinyl)-6-(trifluoromethyl)pyrimidine]	6.6	6.4
> 5000	> 5000	COc1cccc(N(C)c2cc(C(F)(F)F)nc(-c3ccccn3)n2)c1 [Example 160, 4-(N-Methyl-3-methoxyanilino)-2-(2-pyridinyl)-6-trifluoromethyl-pyrimidine]	1.0	1.4
272	360	COc1ccc(Cl)cc1Nc1cc(C(F)(F)F)nc(-c2ccncc2)n1 [Example 162, 4-(5-Chloro-2-methoxyanilino)-2-(4-pyridinyl)-6-trifluoromethyl-pyrimidine]	11.3	7.3
637	698	COc1ccc(Cl)cc1Nc1cc(C(F)(F)F)nc(-c2cccnc2)n1 [Example 180, 4-(5-Chloro-2-methoxyanilino)-2-(3-pyridinyl)-6-trifluoromethylpyrimidine]	15.1	8.7
429	271	Cc1ccc(O)cc1Nc1cc(C(F)(F)F)nc(-c2ccccn2)n1 [Example 188, 4-(5-Hydroxy-2-methylanilino)-2-(2-pyridinyl)-6-trifluoromethylpyrimidine]	3.6	9.3
29	32	COc1ccc(C)cc1Nc1cc(C(F)(F)F)nc(-c2ccccn2)n1 [Example 190, 4-(2-Methoxy-5-methylanilino)-2-(2-pyridinyl)-6-trifluoromethylpyrimidine]	19.3	16.7
419	> 5000	Oc1ccc(Cl)cc1Nc1cc(C(F)(F)F)nc(-c2cnccn2)n1 [Example 198, 4-(5-Chloro-2-hydroxyanilino)-2-(2-pyrazinyl)-6-trifluoromethylpyrimidine]	3.3	1.8
333	173	Cc1cc(Nc2cc(C(F)(F)F)nc(-c3cccnc3)n2)c(C)cc1O [Example 201, 4-(2,5-Dimethyl-4-hydroxyanilino)-2-(3-pyridinyl)-6-trifluoromethylpyrimidine]	15.7	4.8
